Measurements: patent publication US20090312624A1, “ELECTROPHY[…] FOR COGNITIVE MODULATORS” (priority 2008, published 2009)
“Also recorded” adds a separate entry of the source. Where two headings read alike, the source gives them in different places.

Key:
prefrontal cortex = assay: Evoked-response potential (ERP) recorded in the prefrontal cortex following electrical stimulation of the ventral subiculum of the hippocampus; format: in vivo, rat; conditions: for effect on the ERP recorded in the PFC (change from baseline): cognition-enhancing dose 0.5 mg/kg i.p., 0-30 min after administration, 0.5 mg/kg
Description: Male Sprague-Dawley rats (250-350 g) were surgically implanted with 1-4 EEG recording electrodes into the prelimbic region of the PFC (coordinates: A +3.0±1.0 mm; L 0.8±0.3 mm; V −3.0) and a stimulation electrode into the subiculum/CA1 region of the hippocampus (coordinates: A −6.7; L 5.5; V −6.5). EEG signals were referenced to a ground electrode. Electrodes were held in place with acrylic cement and the animals were allowed to recover for 5-10 days prior to the measurements. Animals were provided with free access to food and water during testing.
Animals were tested during daylight hours in a Plexiglas testing chamber (32×32×40 cm) housed in a sound-attenuating chamber. Animals were first habituated to the testing chamber prior to experimentation. Field potentials/EEG signals were amplified and recorded digitally.
ERPs were constructed from peristimulus time histograms. Stimulation intensity that provides a distinct, though not large, ERP (filtered approx. 0.5-150 Hz) was first confirmed from greater than or equal to 50 stimulations that were provided at greater than or equal to 0.1 Hz. Stimulus current (0.1-3.0 mA) from a constant current source was adjusted to produce ERPs that were at least detectable from background electrical activity. Following this calibration of subiculum/CA1 stimulation intensity, ERPs were then collected from one or two 15-minute blocks comprised of a 10-min of hippocampal stimulation period ([…]) followed by 5-minutes of no stimulation. Following baseline recordings, vehicle or a putative cognitive enhancing compound (i.e., psychostimulant such as MPH or other drugs) were administered. ERPs were recorded in 15-min blocks described above for the next 60-90-minutes.
Changes in ERPs were calculated from trial-bin counts used to generate peristimulus time histograms (PSTHs). Data were collected from non-sleep EEG states only, as determined from field potential recordings or in combination with video or other activity measurements. Each PSTH was generated from randomly selected stimulus presentations. Data were expressed as a percentage of baseline ERP activity (pre-vehicle or pre-MPH) and percentage change from saline, which permits comparisons between subjects with different magnitude/shape ERPs.
Appropriate statistical comparisons, including mixed two-way ANOVA with both repeated (time)- and between (treatments)-measures, were used to determine statistical significance of candidate compound-induced changes in PFC. Analyses of ERPs as a function of dose and time and post-hoc comparisons were performed (i.e., Fisher LSD test).

PFC-dependent cognition = conditions: rats, cited from earlier work
[1] = system: catecholamine (norepinephrine and dopamine) neurotransmission; conditions: moderately higher doses that do not improve PFC-dependent cognition; cited from earlier work

For `COC(=O)C(c1ccccc1)C1CCCCN1` (stereo not shown) [MPH, methylphenidate], the “components of the ERP versus pre-treatment recordings (baseline)” value (prefrontal cortex; 30-60 minute period following drug treatment) was “a number of components of the ERP were different”, the “effect on the ERP recorded in the PFC (change from baseline)” value (prefrontal cortex) was “clearly visible and distinct change from baseline; also recorded: alter the magnitude of specific components of the ERP” and the “effect on the ERP recorded in the PFC (change from baseline)” value (prefrontal cortex; listed as methylphenidate) was “significant effects”. The “effect on the ERP recorded in the PFC” value (prefrontal cortex; higher doses that do not improve PFC-dependent cognition (2.0 mg/kg i.p.)) was “do not significantly affect this ERP; also recorded: not observed”, the “effect on PFC-dependent cognition” value (PFC-dependent cognition; 0.5 mg/kg) was “exerting cognition-enhancing effects” and the “effect on PFC-dependent cognition” value (PFC-dependent cognition; 2.0 mg/kg) was “cognition-impairing; also recorded: lacking cognition-enhancing actions”. The “selective targeting of prefrontal cortical catecholamines” value [1] was “not observed”.
